According to ChEMBL document CHEMBL3616375, “Novel 11β-HSD1 inhibitors: C-1 versus C-2 substitution and effect of the introduction of an oxygen atom in the adamantane scaffold” (Bioorg Med Chem Lett, 2015):

Target: 11-beta-hydroxysteroid dehydrogenase 1 (Homo sapiens, UniProt P28845)
Assay: Inhibition of 11beta-HSD1 in human mixed sex human liver microsomes assessed as reduction in conversion of [3H]-cortisone to [3H]-cortisol pre-incubated for 15 mins before [3H]-cortisone addition in presence of NADPH by scintillation proximity assay

11-beta-hydroxysteroid dehydrogenase 1, sequence (P28845 whole entry): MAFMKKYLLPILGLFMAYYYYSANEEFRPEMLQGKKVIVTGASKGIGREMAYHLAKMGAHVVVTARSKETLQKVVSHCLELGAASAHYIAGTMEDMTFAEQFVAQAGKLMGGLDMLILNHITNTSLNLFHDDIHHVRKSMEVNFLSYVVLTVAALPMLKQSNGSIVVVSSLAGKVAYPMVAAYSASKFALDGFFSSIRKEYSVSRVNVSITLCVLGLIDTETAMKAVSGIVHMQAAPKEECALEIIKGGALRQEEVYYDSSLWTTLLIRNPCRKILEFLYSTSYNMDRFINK

**Q.** O=C(NC1C2CC3CC(C2)CC1C3)C1CCCCC1 (stereo unspecified) was tested. Which IC50 did it give?
**A.** 86 nM
